The values below come from patent US20230303547A1, “N-CYANOPYRROLIDINES WITH ACTIVITY AS USP30 INHIBITORS” (MISSION THERAPEUTICS LIMITED, priority 2020, published 2023).

The term EC50 denotes the midpoint of the concentration-response curve. Low readings indicate a more potent agent, high ones a less potent agent. In general, IC50 refers to the concentration that gives 50% inhibition. The term Papp A→B denotes how fast a substance crosses the layer from the apical side.

Data set [1] deals with HCT116 human colorectal carcinoma cells. Briefly: In vitro cytotoxicity (Cell Tox), alamarBlue. Type of data set: cell-based. The settings on record: 96-hour continual compound exposure. From the text: There is also a need for compounds that have a favourable safety profile, which may be measured by a variety of standard in vitro and in vivo methods. A cell toxicity counter-screen may be used to assay the anti-proliferative/cytotoxic effect in a particular cell line (e.g. HCT116) by fluorometric detection of rezasurin (alamarBlue™) to resofurin in response to mitochondrial activity.
In Vitro Cytotoxicity (Cell Tox): Measured in HCT116 human colorectal carcinoma cells using alamarBlue™ as the assay endpoint. Compound cytotoxicity was measured over a period of 96-hour continual compound exposure.

The next data set concerns the target Cathepsin B (Homo sapiens (Human), UniProt P07858). Briefly: Cathepsin B IC50. The format is biochemical.
The test system of data set [2] is Eurofins CEREP SafetyScreen44 panel. Briefly: Eurofins CEREP SafetyScreen44 panel. The format is binding. The text has this:
Aside from selectivity over other DUB enzymes, it is important for a drug to have low affinity for other targets, and pharmacological profiling may be performed against panels of targets to assess the potential for, and to minimise, potential off-target effects. Examples of targets for which the compounds of the present invention may be screened against are those of the industry standard Eurofins-Cerep SafetyScreen44 panel, which includes 44 targets as a representative selection of GPCR receptors, transporters, ion channels, nuclear receptors, and kinase and non-kinase enzymes. Preferably, compounds of the invention have insignificant affinity against targets of this screening panel. Further examples of targets for which the compounds of the present invention may be screened against are kinases of the Thermo Fisher SelectScreen kinase profiling panel, which includes 39 targets as a representative selection of kinase enzymes. Preferably, compounds of the invention have insignificant affinity against targets of this screening panel. Additionally, examples of a particular enzyme class for which the compounds of the present invention may be screened against are the cathepsins (e.g. cathepsin A, B, C, H, K, L, L2, S, V and Z). Preferably, compounds of the invention have good selectivity for USP30 over one or more of these enzymes. […]

Another data set in a line: WT-MDCK in vitro flux. Type of data set: in vitro ADME. The settings on record: dog. From the text: WT-MDCK (wild-type) in vitro flux.
Data set [3] concerns P-glycoprotein (MDR1), human. Description: MDR1-MDCK flux assay. Type of data set: in vitro ADME. The settings on record: dog, read-out: MDR1-MDCK Effective Efflux Ratio. From the text: The treatment of CNS disorders, including Alzheimer’s disease, Parkinson’s disease, and other disorders described herein, requires drug molecules to target the brain, which requires adequate penetration of the blood brain barrier. […] The probability that a compound can cross the blood brain barrier may be measured by an in vitro flux assay utilizing a MDR1-MDCK cell monolayer (Madin-Darby Canine Kidney cells transfected with MDR-1 resulting in overexpression of the human efflux transporter P-glycoprotein). Additionally, exposure may also be measured directly in brain and plasma using in vivo animal models.
MDR1-MDCK (Madin-Darby Canine Kidney cell monolayer) (in vitro) flux assay.

Data set [4] deals with Salmonella typhimurium strains TA98, TA100, TA1535 and TA97a and the Escherichia Coli strain WP2 uvrA pKM101. Briefly: Bacterial reverse mutation assay (Ames). Type of data set: cell-based. The settings on record: up to 5000 µg/plate with and without metabolic activation. The procedure:
The bacterial reverse mutation assay (Ames Test) may be used to evaluate the mutagenic properties of compounds of the invention, commonly by using the bacterial strain Salmonella typhimurium, which is mutant for the biosynthesis of the amino acid histidine.
(§1) Example 2 was assessed in the bacterial reverse mutation assay (Ames) and in vitro micronucleus assay. All in vitro tests were conducted with and without exogenous metabolic activation using concentrations up to those limited by cytotoxicity or insolubility.

A further data set concerns the target hERG potassium channel (Homo sapiens (Human), UniProt Q12809). Description: hERG potassium channel current in CHO cells. Type of data set: cell-based. Conditions: 30 µM, stably expressed CHO cells. The procedure:
The hERG predictor assay provides valuable information about the possible binding of test compounds to the potassium channel and potential QT prolongation on […]. Inhibition of the hERG current causes QT interval prolongation resulting in potentially fatal ventricular tachyarrhythmia (Torsades de Pointes). Typically, assay data may be generated from an automated patch-clamp assay platform.
Example 2 was evaluated for effects on the hERG potassium channel, in stably expressed CHO cells at concentrations between 0.01 and 30 µM. Example 2 produced maximum inhibition value of 35% of the hERG current amplitude at 30 µM indicating little propensity for affecting the QT interval.
(In general: The hERG channel carries a current that helps repolarise heart muscle cells.)

Another data set deals with TK6 cells. Description: In vitro micronucleus assay. The settings on record: 27 hours recovery. Type of data set: cell-based. The procedure: The micronucleus assay may be used to determine if a compound is genotoxic by evaluating the presence of micronuclei. Micronuclei may contain chromosome fragments produced from DNA breakage (clastogens) or whole chromosomes produced by disruption of the mitotic apparatus (aneugens).
as §1
Induction of chromosome damage was assessed using the in vitro micronucleus assay in TK6 cells. Example 2 was negative for induction of micronuclei when incubated for 3 hours in the presence of exogenous metabolic activation followed by 27 hours recovery, and also when incubated for 27 hours in the absence of exogenous metabolic activation followed by 27 hours recovery.

Sequence of hERG potassium channel (Q12809 whole entry): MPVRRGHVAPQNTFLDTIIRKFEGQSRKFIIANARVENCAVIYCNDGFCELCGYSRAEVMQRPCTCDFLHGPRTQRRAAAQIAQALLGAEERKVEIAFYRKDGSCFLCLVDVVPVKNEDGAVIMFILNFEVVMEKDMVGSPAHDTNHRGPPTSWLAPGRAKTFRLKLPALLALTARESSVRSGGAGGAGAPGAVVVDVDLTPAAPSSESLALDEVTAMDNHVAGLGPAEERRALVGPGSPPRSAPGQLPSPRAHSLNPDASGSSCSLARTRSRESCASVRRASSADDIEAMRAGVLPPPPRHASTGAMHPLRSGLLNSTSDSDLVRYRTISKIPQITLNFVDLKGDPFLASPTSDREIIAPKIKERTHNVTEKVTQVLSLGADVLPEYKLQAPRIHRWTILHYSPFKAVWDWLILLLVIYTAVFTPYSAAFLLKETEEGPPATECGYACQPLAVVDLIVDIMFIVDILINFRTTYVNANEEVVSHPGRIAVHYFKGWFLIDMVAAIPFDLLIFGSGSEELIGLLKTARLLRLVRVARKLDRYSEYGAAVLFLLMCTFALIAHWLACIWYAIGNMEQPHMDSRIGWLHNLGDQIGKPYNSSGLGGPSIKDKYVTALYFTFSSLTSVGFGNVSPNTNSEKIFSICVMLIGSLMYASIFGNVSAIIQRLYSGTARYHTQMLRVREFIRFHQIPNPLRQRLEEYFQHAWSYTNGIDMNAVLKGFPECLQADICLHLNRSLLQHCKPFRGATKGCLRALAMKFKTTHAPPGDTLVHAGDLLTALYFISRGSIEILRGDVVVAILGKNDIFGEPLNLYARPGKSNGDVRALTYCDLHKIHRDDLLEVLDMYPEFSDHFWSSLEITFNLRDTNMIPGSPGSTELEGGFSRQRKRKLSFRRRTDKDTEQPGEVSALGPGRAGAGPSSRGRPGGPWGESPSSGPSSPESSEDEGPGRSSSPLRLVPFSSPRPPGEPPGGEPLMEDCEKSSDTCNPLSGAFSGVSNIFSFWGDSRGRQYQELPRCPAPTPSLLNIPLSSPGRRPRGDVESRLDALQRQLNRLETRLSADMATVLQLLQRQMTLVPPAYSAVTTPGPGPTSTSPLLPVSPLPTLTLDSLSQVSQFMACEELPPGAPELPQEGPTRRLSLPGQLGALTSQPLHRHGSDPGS

In turn, `C[C@@H]1C[C@@H](NC(=O)c2ncc(-c3cc(C#N)ccc3OC3CC3)o2)CN1C#N` [Example 1, 5-(5-cyano-2-cyclopropoxyphenyl)-N-((3R,5R)-1-cyano-5-methylpyrrolidin-3-yl)oxazole-2-carboxamide] showed a half-maximal effective concentration (EC50) in data set [1] (Homo sapiens, HCT-116, 96 h) of 23.8 µM. This molecule also came in with an IC50 at Cathepsin B of 107 µM. Besides, the “affinity for targets in this assay” value in data set [2] is “low affinity”.
In the case of `COC[C@@H]1C[C@@H](NC(=O)c2ncc(-c3cc(C#N)ccc3OC3CC3)o2)CN1C#N` [Example 2, 5-(5-cyano-2-cyclopropoxyphenyl)-N-((3R,5S)-1-cyano-5-(methoxymethyl)pyrrolidin-3-yl)oxazole-2-carboxamide], the EC50 in data set [1] was > 30 µM; in data set [1] (Homo sapiens, HCT-116, 96 h) it was 27.1 µM. The efflux ratio in the data set “WT-MDCK in vitro flux” turned out to be 0.7; in data set [3], 15. This molecule showed a Papp A→B in the data set “WT-MDCK in vitro flux” (A-B) of 10.7 ×10⁻⁶ cm/s. Moreover, the “induction of mutations in reverse mutation assay” value in data set [4] is on record as “did not induce mutations”. Besides, the “maximum inhibition of the hERG current amplitude” value on hERG potassium channel came to 35%. Moreover, on Cathepsin B, the half-maximal inhibitory concentration (IC50) was > 300 µM. In addition, the induction of micronuclei entry with TK6 cells (3 hours in the presence of exogenous metabolic activation) and in the data set with TK6 cells (27 hours in the absence of exogenous metabolic activation) was “negative” throughout.
